# “And” between values parts separate entries of the source, which are not always exact repeats. Identical values can stand only once.
# Assays:
# [1] = target: T1, ABL1-nonphosphorylated (Homo sapiens, UniProt P00519); experiment: KinomeScan; type: binding; settings: read-out: % control
# T1 construct: purchased DiscoveRx KINOMEscan
# [2] = target: T2, ACVR1B (Homo sapiens, UniProt P36896); experiment: KinomeScan; type: binding; settings: read-out: % control
# T2 construct: purchased DiscoveRx KINOMEscan
# [3] = target: T3, BIKE (Homo sapiens, UniProt Q9NSY1); experiment: KinomeScan; type: binding; settings: read-out: % control
# T3 construct: purchased DiscoveRx KINOMEscan
# T3 sequence (Q9NSY1 whole entry): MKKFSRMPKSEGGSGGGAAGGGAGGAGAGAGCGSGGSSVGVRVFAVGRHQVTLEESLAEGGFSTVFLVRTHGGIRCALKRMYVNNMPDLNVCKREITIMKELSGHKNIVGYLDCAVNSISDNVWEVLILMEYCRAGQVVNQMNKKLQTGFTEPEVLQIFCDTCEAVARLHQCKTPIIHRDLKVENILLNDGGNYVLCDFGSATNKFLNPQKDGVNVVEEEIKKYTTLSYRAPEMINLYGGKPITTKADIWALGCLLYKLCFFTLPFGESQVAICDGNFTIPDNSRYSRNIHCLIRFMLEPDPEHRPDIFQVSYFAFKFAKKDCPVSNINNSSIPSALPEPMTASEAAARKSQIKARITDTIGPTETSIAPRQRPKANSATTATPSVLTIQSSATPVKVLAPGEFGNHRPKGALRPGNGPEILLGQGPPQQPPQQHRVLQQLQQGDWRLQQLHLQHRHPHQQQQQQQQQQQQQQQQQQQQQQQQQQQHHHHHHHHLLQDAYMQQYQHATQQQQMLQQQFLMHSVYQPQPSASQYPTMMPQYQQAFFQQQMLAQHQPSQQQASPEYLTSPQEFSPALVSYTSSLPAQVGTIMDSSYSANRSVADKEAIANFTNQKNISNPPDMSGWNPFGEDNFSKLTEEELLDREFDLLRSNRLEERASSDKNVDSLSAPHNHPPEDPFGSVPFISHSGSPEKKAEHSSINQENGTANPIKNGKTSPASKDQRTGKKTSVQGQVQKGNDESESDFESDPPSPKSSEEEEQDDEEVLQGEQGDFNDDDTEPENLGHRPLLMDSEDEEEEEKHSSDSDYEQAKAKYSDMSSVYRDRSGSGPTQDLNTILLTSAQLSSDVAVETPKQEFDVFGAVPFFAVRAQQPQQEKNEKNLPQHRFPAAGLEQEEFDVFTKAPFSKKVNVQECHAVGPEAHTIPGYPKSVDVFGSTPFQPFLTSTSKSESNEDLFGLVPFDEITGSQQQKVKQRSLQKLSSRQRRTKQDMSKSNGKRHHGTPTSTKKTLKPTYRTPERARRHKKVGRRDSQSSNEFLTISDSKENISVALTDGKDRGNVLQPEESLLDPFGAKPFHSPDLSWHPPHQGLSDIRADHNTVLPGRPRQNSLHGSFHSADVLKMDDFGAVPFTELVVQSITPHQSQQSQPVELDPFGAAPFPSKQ
# [4] = target: T4, CASK (Homo sapiens, UniProt O14936); experiment: KinomeScan; type: binding; settings: read-out: % control
# T4 construct: purchased DiscoveRx KINOMEscan
# [5] = target: T5, EPHA5 (Homo sapiens, UniProt P54756); experiment: KinomeScan; type: binding; settings: read-out: % control
# T5 construct: purchased DiscoveRx KINOMEscan
# [6] = target: T6, EPHA7 (Homo sapiens, UniProt Q15375); experiment: KinomeScan; type: binding; settings: read-out: % control
# T6 construct: purchased DiscoveRx KINOMEscan
# [7] = target: T7, EPHB1 (Homo sapiens, UniProt P54762); experiment: KinomeScan; type: binding; settings: read-out: % control
# T7 construct: purchased DiscoveRx KINOMEscan
# [8] = target: T8, ERK2 (Homo sapiens, UniProt P28482); experiment: KinomeScan; type: binding; settings: read-out: % control
# T8 construct: purchased DiscoveRx KINOMEscan
# [9] = target: T9, ERN1 (Homo sapiens, UniProt O75460); experiment: KinomeScan; type: binding; settings: read-out: % control
# T9 construct: purchased DiscoveRx KINOMEscan
# [10] = target: T10, FGFR4 (Homo sapiens, UniProt P22455); experiment: KinomeScan; type: binding; settings: read-out: % control
# T10 construct: purchased DiscoveRx KINOMEscan
# [11] = target: T11, GRK2 (Homo sapiens, UniProt P25098); experiment: KinomeScan; type: binding; settings: read-out: % control
# T11 construct: purchased DiscoveRx KINOMEscan
# [12] = target: T12, GRK4 (Homo sapiens, UniProt P32298); experiment: KinomeScan; type: binding; settings: read-out: % control
# T12 construct: purchased DiscoveRx KINOMEscan
# T12 sequence (P32298 whole entry): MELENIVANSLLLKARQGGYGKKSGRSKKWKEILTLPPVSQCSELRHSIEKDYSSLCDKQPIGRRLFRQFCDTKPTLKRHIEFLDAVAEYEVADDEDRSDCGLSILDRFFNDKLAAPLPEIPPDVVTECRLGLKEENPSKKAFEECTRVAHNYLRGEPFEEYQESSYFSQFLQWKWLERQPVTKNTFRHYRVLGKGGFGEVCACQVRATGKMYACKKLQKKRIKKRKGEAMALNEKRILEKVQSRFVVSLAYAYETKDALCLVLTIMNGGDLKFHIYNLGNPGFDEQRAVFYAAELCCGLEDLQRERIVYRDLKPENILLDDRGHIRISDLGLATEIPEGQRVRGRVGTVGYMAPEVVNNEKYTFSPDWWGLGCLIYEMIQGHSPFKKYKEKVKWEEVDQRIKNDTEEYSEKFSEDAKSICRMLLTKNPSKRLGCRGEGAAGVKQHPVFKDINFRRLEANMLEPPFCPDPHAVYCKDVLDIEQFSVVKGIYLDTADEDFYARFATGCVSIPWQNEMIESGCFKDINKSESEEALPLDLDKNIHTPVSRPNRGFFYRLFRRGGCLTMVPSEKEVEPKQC
# [13] = target: T13, IRAK3 (Homo sapiens, UniProt Q9Y616); experiment: KinomeScan; type: binding; settings: read-out: % control
# T13 construct: purchased DiscoveRx KINOMEscan
# [14] = target: T14, JAK1(JH2domain-pseudokinase) (Homo sapiens, UniProt P23458); experiment: KinomeScan; type: binding; settings: read-out: % control
# T14 construct: JAK1(JH2domain-pseudokinase); purchased DiscoveRx KINOMEscan
# [15] = target: T15, LCK (Homo sapiens, UniProt P06239); experiment: KinomeScan; type: binding; settings: read-out: % control
# T15 construct: purchased DiscoveRx KINOMEscan
# [16] = target: T16, MAP4K4 (Homo sapiens, UniProt O95819); experiment: KinomeScan; type: binding; settings: read-out: % control
# T16 construct: purchased DiscoveRx KINOMEscan
# [17] = target: T17, MAP4K5 (Homo sapiens, UniProt Q9Y4K4); experiment: KinomeScan; type: binding; settings: read-out: % control
# T17 construct: purchased DiscoveRx KINOMEscan
# [18] = target: T18, MEK2 (Homo sapiens, UniProt P36507); experiment: KinomeScan; type: binding; settings: read-out: % control
# T18 construct: purchased DiscoveRx KINOMEscan
# [19] = target: T19, MLCK (Homo sapiens, UniProt Q32MK0); experiment: KinomeScan; type: binding; settings: read-out: % control
# T19 construct: purchased DiscoveRx KINOMEscan
# [20] = target: T20, MTOR (Homo sapiens, UniProt P42345); experiment: KinomeScan; type: binding; settings: read-out: % control
# T20 construct: purchased DiscoveRx KINOMEscan
# [21] = target: T21, MYLK4 (Homo sapiens, UniProt Q86YV6); experiment: KinomeScan; type: binding; settings: read-out: % control
# T21 construct: purchased DiscoveRx KINOMEscan
# [22] = target: T22, p38-alpha (Homo sapiens, UniProt Q16539); experiment: KinomeScan; type: binding; settings: read-out: % control
# T22 construct: purchased DiscoveRx KINOMEscan
# T22 sequence (Q16539 whole entry): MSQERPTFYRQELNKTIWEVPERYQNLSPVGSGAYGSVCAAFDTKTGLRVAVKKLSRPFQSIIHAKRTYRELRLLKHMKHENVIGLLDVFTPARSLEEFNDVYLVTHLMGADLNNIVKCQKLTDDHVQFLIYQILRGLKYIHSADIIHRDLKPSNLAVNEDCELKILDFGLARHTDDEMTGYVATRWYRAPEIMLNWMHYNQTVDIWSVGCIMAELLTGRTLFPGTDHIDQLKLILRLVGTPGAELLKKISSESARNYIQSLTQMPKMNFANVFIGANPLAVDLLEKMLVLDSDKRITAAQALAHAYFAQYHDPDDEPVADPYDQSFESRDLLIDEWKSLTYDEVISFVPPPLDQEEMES
# [23] = target: T23, p38-beta (Homo sapiens, UniProt Q15759); experiment: KinomeScan; type: binding; settings: read-out: % control
# T23 construct: purchased DiscoveRx KINOMEscan
# [24] = target: T24, PIK3CA(E545A) (Homo sapiens, UniProt P42336, E545A); experiment: KinomeScan; type: binding; settings: read-out: % control
# T24 construct: purchased DiscoveRx KINOMEscan
# [25] = target: T25, PIK3CA(E545K) (Homo sapiens, UniProt P42336, E545K); experiment: KinomeScan; type: binding; settings: read-out: % control
# T25 construct: purchased DiscoveRx KINOMEscan
# [26] = target: T26, PIK3CA(H1047Y) (Homo sapiens, UniProt P42336, H1047Y); experiment: KinomeScan; type: binding; settings: read-out: % control
# T26 construct: purchased DiscoveRx KINOMEscan
# [27] = target: T27, PIK3CA(Q546K) (Homo sapiens, UniProt P42336, Q546K); experiment: KinomeScan; type: binding; settings: read-out: % control
# T27 construct: purchased DiscoveRx KINOMEscan
# [28] = target: T28, PIP5K1A (Homo sapiens, UniProt Q99755); experiment: KinomeScan; type: binding; settings: read-out: % control
# T28 construct: purchased DiscoveRx KINOMEscan
# [29] = target: T29, QSK (Homo sapiens, UniProt Q9Y2K2); experiment: KinomeScan; type: binding; settings: read-out: % control
# T29 construct: purchased DiscoveRx KINOMEscan
# [30] = target: T30, SBK1 (Homo sapiens, UniProt Q52WX2); experiment: KinomeScan; type: binding; settings: read-out: % control
# T30 construct: purchased DiscoveRx KINOMEscan
# [31] = target: T31, SIK (Homo sapiens, UniProt P57059); experiment: KinomeScan; type: binding; settings: read-out: % control
# T31 construct: purchased DiscoveRx KINOMEscan
# [32] = target: T32, SNRK (Homo sapiens, UniProt Q9NRH2); experiment: KinomeScan; type: binding; settings: read-out: % control
# T32 construct: purchased DiscoveRx KINOMEscan
# [33] = target: T33, STK16 (Homo sapiens, UniProt O75716); experiment: KinomeScan; type: binding; settings: read-out: % control
# T33 construct: purchased DiscoveRx KINOMEscan
# [34] = target: T34, TIE2 (Homo sapiens, UniProt Q02763); experiment: KinomeScan; type: binding; settings: read-out: % control
# T34 construct: purchased DiscoveRx KINOMEscan
# [35] = target: T35, TNK1 (Homo sapiens, UniProt Q13470); experiment: KinomeScan; type: binding; settings: read-out: % control
# T35 construct: purchased DiscoveRx KINOMEscan
# T35 sequence (Q13470 whole entry): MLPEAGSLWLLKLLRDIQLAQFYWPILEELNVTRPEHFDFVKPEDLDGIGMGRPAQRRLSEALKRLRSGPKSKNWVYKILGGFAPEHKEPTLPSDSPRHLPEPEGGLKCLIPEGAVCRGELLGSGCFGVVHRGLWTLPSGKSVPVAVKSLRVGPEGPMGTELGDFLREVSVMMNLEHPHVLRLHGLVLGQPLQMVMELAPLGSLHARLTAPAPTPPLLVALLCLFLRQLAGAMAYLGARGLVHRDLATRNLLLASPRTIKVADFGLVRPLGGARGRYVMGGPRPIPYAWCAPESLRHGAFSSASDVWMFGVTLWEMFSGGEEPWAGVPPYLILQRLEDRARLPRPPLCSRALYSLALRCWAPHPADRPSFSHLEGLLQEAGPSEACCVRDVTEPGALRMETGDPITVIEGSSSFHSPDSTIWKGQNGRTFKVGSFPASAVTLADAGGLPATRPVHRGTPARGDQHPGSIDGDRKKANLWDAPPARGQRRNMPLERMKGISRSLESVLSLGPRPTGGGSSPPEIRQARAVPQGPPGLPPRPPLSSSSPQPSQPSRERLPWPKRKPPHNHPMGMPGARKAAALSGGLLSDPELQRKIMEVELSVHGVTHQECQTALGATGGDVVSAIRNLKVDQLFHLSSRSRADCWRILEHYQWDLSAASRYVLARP
# [36] = target: T36, TNK2 (Homo sapiens, UniProt Q07912); experiment: KinomeScan; type: binding; settings: read-out: % control
# T36 construct: purchased DiscoveRx KINOMEscan
# [37] = target: T37, TRKA (Homo sapiens, UniProt P04629); experiment: KinomeScan; type: binding; settings: read-out: % control
# T37 construct: purchased DiscoveRx KINOMEscan
# [38] = target: T38, TTK (Homo sapiens, UniProt P33981); experiment: KinomeScan; type: binding; settings: read-out: % control
# T38 construct: purchased DiscoveRx KINOMEscan
# [39] = target: T39, VPS34 (Homo sapiens, UniProt Q8NEB9); experiment: KinomeScan; type: binding; settings: read-out: % control
# T39 construct: purchased DiscoveRx KINOMEscan
# T39 sequence (Q8NEB9 whole entry): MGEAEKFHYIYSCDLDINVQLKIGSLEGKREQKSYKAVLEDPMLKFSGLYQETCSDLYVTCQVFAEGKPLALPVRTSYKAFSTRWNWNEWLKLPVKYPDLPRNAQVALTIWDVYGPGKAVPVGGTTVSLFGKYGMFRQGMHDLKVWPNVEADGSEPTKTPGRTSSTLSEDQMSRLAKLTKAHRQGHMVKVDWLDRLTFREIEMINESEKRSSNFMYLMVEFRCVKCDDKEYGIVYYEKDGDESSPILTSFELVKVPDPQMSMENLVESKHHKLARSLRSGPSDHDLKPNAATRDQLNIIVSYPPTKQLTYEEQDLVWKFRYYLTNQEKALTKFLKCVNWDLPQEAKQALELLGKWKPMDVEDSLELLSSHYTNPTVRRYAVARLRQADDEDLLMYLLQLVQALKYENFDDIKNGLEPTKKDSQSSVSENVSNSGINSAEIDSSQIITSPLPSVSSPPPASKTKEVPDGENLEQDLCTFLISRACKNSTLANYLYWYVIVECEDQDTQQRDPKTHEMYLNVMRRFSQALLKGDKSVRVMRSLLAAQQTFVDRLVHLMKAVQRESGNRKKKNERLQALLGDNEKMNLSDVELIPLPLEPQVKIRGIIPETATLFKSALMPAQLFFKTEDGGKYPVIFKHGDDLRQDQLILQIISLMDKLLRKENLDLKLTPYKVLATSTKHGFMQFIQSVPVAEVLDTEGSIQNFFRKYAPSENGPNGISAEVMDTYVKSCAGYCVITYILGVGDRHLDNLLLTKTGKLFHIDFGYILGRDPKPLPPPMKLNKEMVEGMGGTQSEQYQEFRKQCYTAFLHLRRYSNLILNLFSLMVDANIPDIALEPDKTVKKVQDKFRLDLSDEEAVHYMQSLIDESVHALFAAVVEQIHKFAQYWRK
# [40] = system: Parental BaF3; experiment: Anti-proliferation, BaF3 isogenic cell lines (CellTiter-Glo); type: cell-based; settings: Mus musculus
# [41] = system: BaF3-TEL-EGFR-C797S; experiment: as above; type: cell-based; settings: Mus musculus, 72 hours, triplet testing
# [42] = system: BaF3-INSR; experiment: Anti-proliferative effects, INSR transformed isogenic BaF3 cells; type: cell-based; settings: Mus musculus, read-out: IC50 (anti-proliferative; GI50)
# [43] = target: EGFR(ErbB1) (Homo sapiens, UniProt P00533); experiment: SelectScreen biochemical assay
# Chain of EGFR(ErbB1) (P00533 25-1210): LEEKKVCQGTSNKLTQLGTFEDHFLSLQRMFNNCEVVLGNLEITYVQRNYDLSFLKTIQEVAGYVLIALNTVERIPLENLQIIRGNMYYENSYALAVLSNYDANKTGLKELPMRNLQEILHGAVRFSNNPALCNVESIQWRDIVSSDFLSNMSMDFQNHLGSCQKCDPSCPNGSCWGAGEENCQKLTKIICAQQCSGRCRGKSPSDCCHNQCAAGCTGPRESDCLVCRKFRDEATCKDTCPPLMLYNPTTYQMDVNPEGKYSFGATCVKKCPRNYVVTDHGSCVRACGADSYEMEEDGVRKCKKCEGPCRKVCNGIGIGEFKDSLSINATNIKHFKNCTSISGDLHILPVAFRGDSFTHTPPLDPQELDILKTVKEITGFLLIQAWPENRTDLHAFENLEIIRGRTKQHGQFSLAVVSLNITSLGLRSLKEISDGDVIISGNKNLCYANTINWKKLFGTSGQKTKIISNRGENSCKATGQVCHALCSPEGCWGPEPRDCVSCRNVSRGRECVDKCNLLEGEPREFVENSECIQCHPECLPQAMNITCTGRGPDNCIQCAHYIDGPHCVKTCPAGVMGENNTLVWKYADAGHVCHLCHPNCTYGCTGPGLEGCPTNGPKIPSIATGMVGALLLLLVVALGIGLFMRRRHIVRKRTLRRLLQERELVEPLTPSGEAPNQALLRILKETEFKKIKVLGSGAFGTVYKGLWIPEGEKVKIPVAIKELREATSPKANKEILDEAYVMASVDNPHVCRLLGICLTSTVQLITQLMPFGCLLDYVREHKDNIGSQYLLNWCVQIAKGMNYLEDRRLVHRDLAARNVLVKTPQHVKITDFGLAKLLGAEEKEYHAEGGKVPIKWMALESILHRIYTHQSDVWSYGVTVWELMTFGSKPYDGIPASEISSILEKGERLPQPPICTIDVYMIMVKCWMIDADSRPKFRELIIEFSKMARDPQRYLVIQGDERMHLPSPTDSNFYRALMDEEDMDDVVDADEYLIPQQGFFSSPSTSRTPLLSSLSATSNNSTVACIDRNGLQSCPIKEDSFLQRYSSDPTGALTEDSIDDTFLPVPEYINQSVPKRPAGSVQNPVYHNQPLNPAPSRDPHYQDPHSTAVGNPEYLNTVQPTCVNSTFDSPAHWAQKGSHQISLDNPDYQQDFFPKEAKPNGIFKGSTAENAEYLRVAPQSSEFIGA
# Excerpt: The enzymatic inhibition result of CHMFL-EGFR-26 was detected by SelectScreen techonology (Life Technologies).
structure (smiles),measurement,setting,value
C=CC(=O)N1CCC[C@@H](n2nc(-c3ccc(OCc4cccc(C)n4)c(Cl)c3)c3c(N)ncnc32)C1 [CHMFL-EGFR-26],remaining binding at 1 µM,[1],87%
same,remaining binding at 1 µM,[2],30%
same,remaining binding at 1 µM,[3],96%
same,remaining binding at 1 µM,[4],95%
same,remaining binding at 1 µM,[5],100%
same,remaining binding at 1 µM,[6],100%
same,remaining binding at 1 µM,[7],96%
same,remaining binding at 1 µM,[8],94%
same,remaining binding at 1 µM,[9],81%
same,remaining binding at 1 µM,[10],100%
same,remaining binding at 1 µM,[11],99%
same,remaining binding at 1 µM,[12],88%
same,remaining binding at 1 µM,[13],94%
same,remaining binding at 1 µM,[14],84%
same,remaining binding at 1 µM,[15],33%
same,remaining binding at 1 µM,[16],46%
same,remaining binding at 1 µM,[17],54%
same,remaining binding at 1 µM,[18],1.1%
same,remaining binding at 1 µM,[19],100%
same,remaining binding at 1 µM,[20],100%
same,remaining binding at 1 µM,[21],100%
same,remaining binding at 1 µM,[22],86%
same,remaining binding at 1 µM,[23],100%
same,remaining binding at 1 µM,[24],100%
same,remaining binding at 1 µM,[25],81%
same,remaining binding at 1 µM,[26],100%
same,remaining binding at 1 µM,[27],83%
same,remaining binding at 1 µM,[28],100%
same,remaining binding at 1 µM,[29],71%
same,remaining binding at 1 µM,[30],100%
same,remaining binding at 1 µM,[31],69%
same,remaining binding at 1 µM,[32],100%
same,remaining binding at 1 µM,[33],100%
same,remaining binding at 1 µM,[34],78%
same,remaining binding at 1 µM,[35],64%
same,remaining binding at 1 µM,[36],93%
same,remaining binding at 1 µM,[37],55%
same,remaining binding at 1 µM,[38],95%
same,remaining binding at 1 µM,[39],89%
same,IC50,"[40]; Parental BaF3, Supplementary Table 3, read-out: IC50 (anti-proliferative)",9 µM
same,GI50,"[40]; Parental BaF3, 72 hours, triplet testing",> 10 µM
same,GI50,[41],2.5 µM
same,IC50,[42],2.8 µM
same,IC50,[43],0.071 µM and 0.0714 µM
